# In ChEMBL document CHEMBL1152576, “E-Combretastatin and E-resveratrol structural modifications: antimicrobial and cancer cell growth inhibitory beta-E-nitrostyrenes” (Bioorg Med Chem, 2009):
# The source made the active and inactive calls. No cut-off for these calls is given here.
# Tested on: P388
# Assay: Cytotoxicity against mouse P388 cells after 48 hrs by sulforhodamine B assay
# Assay type: functional
# Conditions: not given
row,SMILES,ED50
1,COc1cc(/C=C/[N+](=O)[O-])cc2c1OCO2,inactive

# Tested on: Escherichia coli
# Assay: Antimicrobial activity against Escherichia coli ATCC 25922 assessed clear zone in inhibition per disk by CLSI disk diffusion susceptibility assay
# Assay type: functional
# Conditions: not given
row,SMILES,MIC [µg]
1,COc1cc(/C=C/[N+](=O)[O-])cc2c1OCO2,>100

# Tested on: Stenotrophomonas maltophilia
# Assay: Antimicrobial activity against Stenotrophomonas maltophilia ATCC 13637 by broth microdilution susceptibility assay
# Assay type: functional
# Conditions: not given
row,SMILES,MIC [µg/mL]
1,COc1cc(/C=C/[N+](=O)[O-])cc2c1OCO2,> 64

# Tested on: KM-20L2
# Assay: Cytotoxicity against human KM20L2 cells after 48 hrs by sulforhodamine B assay
# Assay type: functional
# Conditions: not given
row,SMILES,GI50
1,COc1cc(/C=C/[N+](=O)[O-])cc2c1OCO2,inactive

# Tested on: Enterobacter cloacae
# Assay: Antimicrobial activity against Enterobacter cloacae ATCC 13047 assessed clear zone in inhibition per disk by CLSI disk diffusion susceptibility assay
# Assay type: functional
# Conditions: not given
row,SMILES,MIC [µg]
1,COc1cc(/C=C/[N+](=O)[O-])cc2c1OCO2,>100

# Tested on: Enterococcus faecalis
# Assay: Antimicrobial activity against Enterococcus faecalis ATCC 29212 assessed clear zone in inhibition per disk by CLSI disk diffusion susceptibility assay
# Assay type: functional
# Conditions: not given
row,SMILES,MIC [µg]
1,COc1cc(/C=C/[N+](=O)[O-])cc2c1OCO2,>100

# Tested on: SK-MEL-5
# Assay: Cytotoxicity against human SK-MEL-5 cells after 48 hrs by sulforhodamine B assay
# Assay type: functional
# Conditions: not given
row,SMILES,GI50
1,COc1cc(/C=C/[N+](=O)[O-])cc2c1OCO2,inactive

# Tested on: not listed separately
# Assay: Inhibition of tubulin polymerization
# Conditions: not given
row,SMILES,IC50 [µM]
1,COc1cc(/C=C/[N+](=O)[O-])cc2c1OCO2,5.6

# Tested on: NCI-H460
# Assay: Cytotoxicity against human NCI-H460 cells after 48 hrs by sulforhodamine B assay
# Assay type: functional
# Conditions: not given
row,SMILES,GI50
1,COc1cc(/C=C/[N+](=O)[O-])cc2c1OCO2,inactive

# Tested on: Neisseria gonorrhoeae
# Assay: Antimicrobial activity against Neisseria gonorrhoeae ATCC 49226 assessed clear zone of inhibition measured per disk by CLSI disk diffusion susceptibility assay
# Assay type: functional
# Conditions: not given
row,SMILES,MIC [µg]
1,COc1cc(/C=C/[N+](=O)[O-])cc2c1OCO2,1.56

# Tested on: DU-145
# Assay: Cytotoxicity against human DU145 cells after 48 hrs by sulforhodamine B assay
# Assay type: functional
# Conditions: not given
row,SMILES,GI50
1,COc1cc(/C=C/[N+](=O)[O-])cc2c1OCO2,inactive

# Tested on: Staphylococcus aureus
# Assay: Antimicrobial activity against Staphylococcus aureus ATCC 29213 assessed clear zone in inhibition per disk by CLSI disk diffusion susceptibility assay
# Assay type: functional
# Conditions: not given
row,SMILES,MIC [µg]
1,COc1cc(/C=C/[N+](=O)[O-])cc2c1OCO2,>100

# Tested on: Cryptococcus neoformans
# Assay: Antifungal activity against Cryptococcus neoformans ATCC 90112 after 48 hrs by broth microdilution susceptibility assay
# Assay type: functional
# Conditions: ATCC 90112, 48 h
row,SMILES,MFC [µg/mL]
1,COc1cc(/C=C/[N+](=O)[O-])cc2c1OCO2,> 64

# Tested on: Candida albicans
# Assay: Antifungal activity against Candida albicans ATCC 90028 after 48 hrs by broth microdilution susceptibility assay
# Assay type: functional
# Conditions: ATCC 90028, 48 h
row,SMILES,MIC [µg/mL]
1,COc1cc(/C=C/[N+](=O)[O-])cc2c1OCO2,> 64

# Tested on: SF-268
# Assay: Cytotoxicity against human SF268 cells after 48 hrs by sulforhodamine B assay
# Assay type: functional
# Conditions: not given
row,SMILES,GI50
1,COc1cc(/C=C/[N+](=O)[O-])cc2c1OCO2,inactive

# Tested on: Streptococcus pneumoniae
# Assay: Antimicrobial activity against Streptococcus pneumoniae ATCC 6303 by broth microdilution susceptibility assay
# Assay type: functional
# Conditions: not given
row,SMILES,MIC [µg/mL]
1,COc1cc(/C=C/[N+](=O)[O-])cc2c1OCO2,> 64

# Tested on: Cryptococcus neoformans
# Assay: Antimicrobial activity against Cryptococcus neoformans ATCC 90112 assessed clear zone in inhibition per disk by CLSI disk diffusion susceptibility assay
# Assay type: functional
# Conditions: not given
row,SMILES,MIC [µg]
1,COc1cc(/C=C/[N+](=O)[O-])cc2c1OCO2,3.12

# Tested on: Enterobacter cloacae
# Assay: Antimicrobial activity against Enterobacter cloacae ATCC 13047 by broth microdilution susceptibility assay
# Assay type: functional
# Conditions: not given
row,SMILES,MIC [µg/mL]
1,COc1cc(/C=C/[N+](=O)[O-])cc2c1OCO2,> 64

# Tested on: Streptococcus pneumoniae
# Assay: Antimicrobial activity against Streptococcus pneumoniae ATCC 6303 assessed clear zone in inhibition per disk by CLSI disk diffusion susceptibility assay
# Assay type: functional
# Conditions: not given
row,SMILES,MIC [µg]
1,COc1cc(/C=C/[N+](=O)[O-])cc2c1OCO2,>100

# Tested on: BXPC-3
# Assay: Cytotoxicity against human BxPC3 cells after 48 hrs by sulforhodamine B assay
# Assay type: functional
# Conditions: not given
row,SMILES,GI50
1,COc1cc(/C=C/[N+](=O)[O-])cc2c1OCO2,inactive

# Tested on: Staphylococcus aureus
# Assay: Antimicrobial activity against Staphylococcus aureus ATCC 29213 by broth microdilution susceptibility assay
# Assay type: functional
# Conditions: not given
row,SMILES,MIC [µg/mL]
1,COc1cc(/C=C/[N+](=O)[O-])cc2c1OCO2,> 64

# Tested on: Candida albicans
# Assay: Antimicrobial activity against Candida albicans ATCC 90028 assessed clear zone in inhibition per disk by CLSI disk diffusion susceptibility assay
# Assay type: functional
# Conditions: not given
row,SMILES,MIC [µg]
1,COc1cc(/C=C/[N+](=O)[O-])cc2c1OCO2,1.56

# Tested on: Stenotrophomonas maltophilia
# Assay: Antimicrobial activity against Stenotrophomonas maltophilia ATCC 13637 assessed clear zone in inhibition per disk by CLSI disk diffusion susceptibility assay
# Assay type: functional
# Conditions: not given
row,SMILES,MIC [µg]
1,COc1cc(/C=C/[N+](=O)[O-])cc2c1OCO2,>100

# Tested on: OVCAR-3
# Assay: Cytotoxicity against human OVCAR-3 cells after 48 hrs by sulforhodamine B assay
# Assay type: functional
# Conditions: not given
row,SMILES,GI50
1,COc1cc(/C=C/[N+](=O)[O-])cc2c1OCO2,inactive

# Tested on: A498
# Assay: Cytotoxicity against human A498 cells after 48 hrs by sulforhodamine B assay
# Assay type: functional
# Conditions: not given
row,SMILES,GI50
1,COc1cc(/C=C/[N+](=O)[O-])cc2c1OCO2,inactive

# Tested on: Neisseria gonorrhoeae
# Assay: Antimicrobial activity against Neisseria gonorrhoeae ATCC 49226 by broth microdilution susceptibility assay
# Assay type: functional
# Conditions: not given
row,SMILES,MIC [µg/mL]
1,COc1cc(/C=C/[N+](=O)[O-])cc2c1OCO2,> 64

# Tested on: Escherichia coli
# Assay: Antimicrobial activity against Escherichia coli ATCC 25922 by broth microdilution susceptibility assay
# Assay type: functional
# Conditions: not given
row,SMILES,MIC [µg/mL]
1,COc1cc(/C=C/[N+](=O)[O-])cc2c1OCO2,> 64

# Tested on: SF-295
# Assay: Cytotoxicity against human SF295 cells after 48 hrs by sulforhodamine B assay
# Assay type: functional
# Conditions: not given
row,SMILES,GI50
1,COc1cc(/C=C/[N+](=O)[O-])cc2c1OCO2,inactive

# Tested on: Micrococcus luteus
# Assay: Antimicrobial activity against Micrococcus luteus Presque Isle 456 assessed clear zone in inhibition per disk by CLSI disk diffusion susceptibility assay
# Assay type: functional
# Conditions: not given
row,SMILES,MIC [µg]
1,COc1cc(/C=C/[N+](=O)[O-])cc2c1OCO2,>100

# Tested on: Micrococcus luteus
# Assay: Antimicrobial activity against Micrococcus luteus Presque Isle 456 by broth microdilution susceptibility assay
# Assay type: functional
# Conditions: not given
row,SMILES,MIC [µg/mL]
1,COc1cc(/C=C/[N+](=O)[O-])cc2c1OCO2,> 64

# Tested on: Enterococcus faecalis
# Assay: Antimicrobial activity against Enterococcus faecalis ATCC 29212 by broth microdilution susceptibility assay
# Assay type: functional
# Conditions: not given
row,SMILES,MIC [µg/mL]
1,COc1cc(/C=C/[N+](=O)[O-])cc2c1OCO2,> 64

# Tested on: MCF7
# Assay: Cytotoxicity against human MCF7 cells after 48 hrs by sulforhodamine B assay
# Assay type: functional
# Conditions: not given
row,SMILES,GI50
1,COc1cc(/C=C/[N+](=O)[O-])cc2c1OCO2,inactive

# Tested on: Cryptococcus neoformans
# Assay: Antifungal activity against Cryptococcus neoformans ATCC 90112 after 72 hrs by broth microdilution susceptibility assay
# Assay type: functional
# Conditions: ATCC 90112, 72 h
row,SMILES,MIC [µg/mL]
1,COc1cc(/C=C/[N+](=O)[O-])cc2c1OCO2,64
